Structures are written as SMILES. Some results are limits rather than exact numbers.

The subject of the first data set is HL-60. Briefly: Inhibitory concentration against interleukin-1 beta production in HL-60 cells stimulated with lipopolysaccharide (LPS). Particulars: Homo sapiens. The class given is functional, cell-based.
A word on the IC50: it is the midpoint of a concentration-inhibition curve. `COc1ccc(-c2cc(=O)n(CC3CC3)nc2-c2ccc(OC)cc2)cc1` showed an IC50 of 1800 nM.

For `COc1ccc(-c2cc(=O)n(Cc3c(Cl)cc(Cl)cc3Cl)nc2-c2ccc(OC)cc2)cc1`, the IC50 stood at 9400 nM.

`COc1ccc(-c2cc(=O)n(CC3CCCC3)nc2-c2ccc(OC)cc2)cc1`: the IC50 stood at 110 nM.

The compound `COc1ccc(-c2cc(=O)n(CC(C)C)nc2-c2ccc(OC)cc2)cc1` yielded an IC50 of over 100000 nM.

For `COc1ccc(-c2cc(=O)n(C)nc2-c2ccc(OC)cc2)cc1`, the IC50 was determined as 1130 nM.

In the case of `COc1ccc(-c2cc(=O)n(C/C=C/c3ccc(Cl)cc3Cl)nc2-c2ccc(OC)cc2)cc1`, it took 270 nM to reach half-maximal inhibition (IC50).

As to `COc1ccc(-c2cc(=O)n(Cc3ccncc3)nc2-c2ccc(OC)cc2)cc1`, the IC50 came to 520 nM.

The compound `C=CCn1nc(-c2ccc(OC)cc2)c(-c2ccc(OC)cc2)cc1=O` returned a concentration for half-maximal inhibition (IC50) of over 100000 nM.

The compound `COc1ccc(-c2cc(=O)n(C3CCCC3)nc2-c2ccc(OC)cc2)cc1` returned an IC50 of 510 nM. This lies in the sub-micromolar range.

In the case of `COc1ccc(-c2cc(=O)n(C/C=C/c3ccccc3)nc2-c2ccc(OC)cc2)cc1`, the half-inhibitory concentration (IC50) was determined as 620 nM.

`COc1ccc(-c2cc(=O)n(Cc3cccnc3)nc2-c2ccc(OC)cc2)cc1` came in with a 50% inhibitory concentration (IC50) of 430 nM.

`COc1ccc(-c2cc(=O)n(C(C)C)nc2-c2ccc(OC)cc2)cc1`: the 50% inhibitory concentration (IC50) is 1320 nM.

`COc1ccc(-c2cc(=O)n(C/C=C/c3ccc(F)cc3F)nc2-c2ccc(OC)cc2)cc1` displayed an IC50 of 100 nM. This IC50 is about 13-fold lower than that of the compound before.

`COc1ccc(-c2cc(=O)n(Cc3ccccn3)nc2-c2ccc(OC)cc2)cc1` yielded a half-inhibitory concentration (IC50) of 1480 nM. Compared with the last compound, the IC50 is about 15-fold higher.

Consider `COc1ccc(-c2cc(=O)n(Cc3ccc(F)cc3F)nc2-c2ccc(OC)cc2)cc1`, for which the IC50 was determined as 180 nM.

In turn, `COc1ccc(-c2cc(=O)n(C3CC3)nc2-c2ccc(OC)cc2)cc1` registered an IC50 of 7980 nM. This IC50 lies about 44-fold higher than the previous one.

In turn, `COc1ccc(-c2cc(=O)n(C/C=C/c3ccc(Cl)cc3)nc2-c2ccc(OC)cc2)cc1` had an IC50 of 100 nM.

`COc1ccc(-c2cc(=O)n(Cc3ccc(Cl)c(Cl)c3)nc2-c2ccc(OC)cc2)cc1` gave an IC50 of 210 nM.

`COc1ccc(-c2cc(O)nnc2-c2ccc(OC)cc2)cc1` yielded an IC50 of 31600 nM.

In turn, `COc1ccc(-c2cc(=O)n(Cc3c(Cl)cccc3Cl)nc2-c2ccc(OC)cc2)cc1` returned an IC50 of 3160 nM.

`COc1ccc(-c2cc(=O)n(Cc3ccc(F)c(F)c3)nc2-c2ccc(OC)cc2)cc1` had an IC50 of 540 nM.

`COc1ccc(-c2cc(=O)n(Cc3ccccc3)nc2-c2ccc(OC)cc2)cc1` displayed an IC50 of 260 nM.

Consider `COc1ccc(-c2cc(=O)n(Cc3ccc(Cl)cc3Cl)nc2-c2ccc(OC)cc2)cc1`, for which the IC50 came to 1100 nM.

`COc1ccc(-c2cc(=O)n(Cc3ccc(Cl)cc3)nc2-c2ccc(OC)cc2)cc1` had a half-inhibitory concentration (IC50) of 530 nM.

Compound `COc1ccc(-c2cc(=O)n(Cc3ccc(F)cc3)nc2-c2ccc(OC)cc2)cc1` had an IC50 of 150 nM. Against the preceding compound, the IC50 is about 3.5-fold lower.

On to `CCn1nc(-c2ccc(OC)cc2)c(-c2ccc(OC)cc2)cc1=O`, for which the IC50 stood at 610 nM.

As for `COc1ccc(-c2cc(=O)n(C/C=C/c3ccc(F)cc3)nc2-c2ccc(OC)cc2)cc1`, the IC50 amounted to 170 nM.

Test system in another data set: not listed separately
Briefly: Pharmacokinetic property (t1/2) in rat. It is filed as ADME, organism-based. Particulars: in vivo.
By half-life is commonly meant how long it takes for the measured level to halve. `COc1ccc(-c2cc(=O)n(C/C=C/c3ccc(Cl)cc3)nc2-c2ccc(OC)cc2)cc1` showed a half-life of 4.9 h.

Test system in another data set: not listed separately
Briefly: Pharmacokinetic property (Cmax) in rat. It is filed as ADME, organism-based. The conditions noted are these: in vivo.
Usually Cmax stands for the peak of the concentration-time curve. `COc1ccc(-c2cc(=O)n(C/C=C/c3ccc(Cl)cc3)nc2-c2ccc(OC)cc2)cc1` had a maximum concentration (Cmax) of 316 ng/mL.

Test system in another data set: not listed separately
Briefly: Pharmacokinetic property (Tmax) in rat. The conditions noted are these: in vivo. It is filed as ADME, organism-based.
A word on the Tmax: it is the time from dosing to the highest level. In the case of `COc1ccc(-c2cc(=O)n(C/C=C/c3ccc(Cl)cc3)nc2-c2ccc(OC)cc2)cc1`, the Tmax was 7 h.

For another data set, the species on record is Rattus norvegicus. Put plainly: Pharmacokinetic property (AUC) in rat. It is filed as ADME, organism-based. Particulars: in vivo.
What is called AUC is the area under the concentration-time curve, a measure of exposure. `COc1ccc(-c2cc(=O)n(C/C=C/c3ccc(Cl)cc3)nc2-c2ccc(OC)cc2)cc1` came in with an AUC of 3900 ng·h/mL.
